These results are taken from article PMC9177545, “3-oxo-C12:2-HSL, quorum sensing molecule from human intestinal microbiota, inhibits pro-inflammatory pathways in immune cells via bitter taste receptors” (Scientific Reports, 2022).

Assay in all cases: Bitter taste receptor screening, calcium mobilization in HEK293T cells
Common to all, as to format: cell-based

For one test, the target named is T1, TAS2R14 (Homo sapiens, UniProt Q9NYV8).
T1 construct: first 45 amino acids of rat somatostatin type 3 receptor (SSTR3) (N); expressed in transfected cells; host or cells: HEK293T stably expressing chimeric Gα16gust44, transiently co-transfected with the pcDNA4-TAS2R vector and pCMV-GCaMP5G
T1 sequence (Q9NYV8 1-317): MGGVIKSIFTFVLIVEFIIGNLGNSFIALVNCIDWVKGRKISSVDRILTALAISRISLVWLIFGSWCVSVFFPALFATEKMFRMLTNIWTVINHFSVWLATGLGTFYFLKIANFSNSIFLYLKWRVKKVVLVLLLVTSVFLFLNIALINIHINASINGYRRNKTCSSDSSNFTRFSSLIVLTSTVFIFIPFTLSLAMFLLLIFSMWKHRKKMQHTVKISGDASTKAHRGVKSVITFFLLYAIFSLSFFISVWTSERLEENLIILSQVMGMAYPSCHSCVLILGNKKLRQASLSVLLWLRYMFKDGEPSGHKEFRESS
The conditions noted are these: calcium response F/F0. The protocol:
(§1) Bitter taste receptor cDNA were cloned into the pcDNA4 mammalian expression vector (Invitrogen) using full coding receptor sequences reported on UniProt database. The synthetic constructs were codon optimized (Genewiz) and combine the first 45 amino acids of rat somatostatin type 3 receptor at the amino terminus to improve plasma membrane targeting of the receptors in the heterologous system. The FLAG epitope was added to the carboxy terminus without interfering with receptor functionality and can be used for immunocytochemistry. Calcium-mobilization assays were performed using human embryonic kidney cells (HEK293T) stably transfected with chimeric Gα16gust44 protein[78]. Cells were seeded in black, poly-D-lysine coated 96-well plates at a density of 35,000 cells/100 µL in high glucose DMEM supplemented with 10% dialysed fetal bovine serum and 1% penicillin/streptomycin. Twenty-four hours later, the cells were transiently co-transfected using Lipofectamine 2000 (Life Technologies) with one of the TAS2R synthetic optimized vectors or empty expression plasmid, as a negative control, and the pCMV-GCaMP5G construct (Addgene #31788) coding for a genetically encoded calcium indicator[79],[80]. Twenty-four hours after transfection, cells were washed twice with C1 buffer (130 mM NaCl, 5 mM KCl, 10 mM HEPES, 2 mM CaCl2, 5 mM sodium pyruvate, pH7.4). 3-oxo-C12:2-HSL was solved in DMSO and further diluted in C1 buffer. Next, the cells were placed in a fluorometric imaging plate reader (Flexstation® 3, Molecular Devices) and stimulated with automatic injection of increasing concentrations of AHLs. Calcium responses leading to increase in fluorescence were monitored at 510 nm after excitation at 488 nm. Experiments were performed in duplicates and repeated at least four times. The recorded calcium levels of each wells receiving the same stimulus were averaged, response of mock-transfected cells were subtracted from receptor-transfected cells and net signals were normalized to background fluorescence (F/F0, F0 fluorescence light before stimulus application). The resulting dose–response curves of the averaged fluorescent signal amplitudes against the logarithm of the agonist concentration were fitted using Sigma Plot software. For data analysis, the four-parameter logistic equation [f(x) = min + (max − min)/(1 + (x/EC50)nH)] was used to calculate the half-maximal effective concentrations (EC50 values).

Another test deals with T2, TAS2R38 (Homo sapiens, UniProt P59533).
T2 construct: first 45 amino acids of rat somatostatin type 3 receptor (SSTR3) (N); expressed in transfected cells; host or cells: HEK293T stably expressing chimeric Gα16gust44, transiently co-transfected with the pcDNA4-TAS2R vector and pCMV-GCaMP5G
T2 sequence (P59533 1-333): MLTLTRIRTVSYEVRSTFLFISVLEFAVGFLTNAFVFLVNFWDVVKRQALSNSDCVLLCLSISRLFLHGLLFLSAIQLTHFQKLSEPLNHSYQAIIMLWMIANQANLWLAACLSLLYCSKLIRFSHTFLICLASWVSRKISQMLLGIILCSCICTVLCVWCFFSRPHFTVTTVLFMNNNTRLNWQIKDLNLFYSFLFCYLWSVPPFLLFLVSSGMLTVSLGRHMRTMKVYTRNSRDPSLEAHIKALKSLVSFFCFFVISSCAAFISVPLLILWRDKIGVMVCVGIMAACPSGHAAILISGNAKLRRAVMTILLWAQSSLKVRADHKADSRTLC
The protocol: as §1

A further test addresses T3, TAS2R8 (Homo sapiens, UniProt Q9NYW2).
T3 construct: first 45 amino acids of rat somatostatin type 3 receptor (SSTR3) (N); expressed in transfected cells; host or cells: HEK293T stably expressing chimeric Gα16gust44, transiently co-transfected with the pcDNA4-TAS2R vector and pCMV-GCaMP5G
T3 sequence (Q9NYW2 1-309): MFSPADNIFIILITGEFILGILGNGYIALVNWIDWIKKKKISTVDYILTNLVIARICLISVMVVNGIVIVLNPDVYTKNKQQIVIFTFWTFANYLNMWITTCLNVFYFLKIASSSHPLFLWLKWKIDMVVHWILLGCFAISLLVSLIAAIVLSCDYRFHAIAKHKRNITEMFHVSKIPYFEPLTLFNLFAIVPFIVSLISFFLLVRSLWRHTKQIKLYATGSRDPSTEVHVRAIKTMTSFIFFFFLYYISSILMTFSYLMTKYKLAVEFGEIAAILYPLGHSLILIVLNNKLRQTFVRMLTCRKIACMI
On the procedure:
as §1

The next test concerns the target T4, TAS2R10 (Homo sapiens, UniProt Q9NYW0).
T4 construct: first 45 amino acids of rat somatostatin type 3 receptor (SSTR3) (N); expressed in transfected cells; host or cells: HEK293T stably expressing chimeric Gα16gust44, transiently co-transfected with the pcDNA4-TAS2R vector and pCMV-GCaMP5G
T4 sequence (Q9NYW0 1-307): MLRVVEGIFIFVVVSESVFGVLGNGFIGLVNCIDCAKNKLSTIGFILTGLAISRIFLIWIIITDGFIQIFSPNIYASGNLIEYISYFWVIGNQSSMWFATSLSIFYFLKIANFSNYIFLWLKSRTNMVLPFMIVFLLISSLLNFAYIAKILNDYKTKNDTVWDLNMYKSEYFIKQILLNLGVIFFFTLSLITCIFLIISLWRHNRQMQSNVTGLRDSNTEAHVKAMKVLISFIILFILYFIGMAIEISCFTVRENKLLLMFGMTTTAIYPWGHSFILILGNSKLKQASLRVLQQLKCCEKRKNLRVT
On the procedure:
as §1

The target in another test is T5, TAS2R13 (Homo sapiens, UniProt Q9NYV9).
T5 construct: first 45 amino acids of rat somatostatin type 3 receptor (SSTR3) (N); expressed in transfected cells; host or cells: HEK293T stably expressing chimeric Gα16gust44, transiently co-transfected with the pcDNA4-TAS2R vector and pCMV-GCaMP5G
T5 sequence (Q9NYV9 1-303): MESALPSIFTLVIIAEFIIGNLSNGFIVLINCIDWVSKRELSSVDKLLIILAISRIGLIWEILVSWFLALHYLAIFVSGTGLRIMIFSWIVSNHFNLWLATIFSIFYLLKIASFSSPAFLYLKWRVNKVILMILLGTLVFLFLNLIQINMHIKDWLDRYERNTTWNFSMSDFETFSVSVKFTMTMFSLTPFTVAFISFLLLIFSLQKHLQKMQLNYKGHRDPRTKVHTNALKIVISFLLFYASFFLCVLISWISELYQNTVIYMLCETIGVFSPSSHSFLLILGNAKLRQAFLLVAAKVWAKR
On the procedure: as §1

Turning to 3-oxo-C12:2-HSL, the maximum amplitude result on TAS2R14 is “around 0.45”; at TAS2R38 (calcium response F/F0) it was 0.05 ± 0.01; on TAS2R8 (calcium response F/F0), “around 0.45”; on TAS2R10 (calcium response F/F0), 0.13 ± 0.03; on TAS2R13 (calcium response F/F0) it was 0.59 ± 0.03. Further, the EC50 on TAS2R38 (calcium response, 0–1000 µM) stood at 476 ± 125 µM; on TAS2R8 (calcium response, 0–1000 µM), 333 ± 27 µM; at TAS2R10 (calcium response, 0–1000 µM), 438 ± 120 µM; at TAS2R13 (calcium response, 0–1000 µM), 884 ± 41 µM.
